# Measured values taken from patent US10421782B2, “Cyclic cationic peptides with antimicrobial activity” (I.C.F. S.R.L., priority 2012, dated 2019).
# “And” between values parts separate entries of the source, which are not always exact repeats. Identical values can stand only once. Like-named read-outs stand apart in the source and are kept apart here.
# Experiments:
# [1] = test system: Malassezia pachydermatis ATCC 14522; assay: Broth-microdilution test and subsequent plating on agar, fungi (yeasts); type: cell-based; conditions: 2 h contact at 37° C., CFU count on agar Sabouraud
# Method: (§1) The inoculum was set up by culturing Candida albicans ATCC 10231 and Malassezia pachydermatis ATCC 14522 in Czapek-Dox broth medium (DIFCO) for 48-72 h. On the assay day, the fungal culture was centrifuged at 1700×g for 15 min, the pellet was resuspended in phosphate buffer and submitted to shaking by the use of an electric vortex to disperse the fungal cell aggregates. The suspension was diluted until an optical density equal to an opacity of 0.5 on the McFarland turbidimetric scale was reached, which contains approximately 1-5×10^6 cell/ml (Branda J. A., Krantz A. Effectc of yeast on automated cell counting. Am J Clin Pathol., 2006:126, 248-254).
# (§2) The peptides were tested for their ability to inhibit fungal growth. Fifty microliters of peptide at a concentration comprised between about 0.2 mM and about 50 mM were added in 96-well U-bottom plates containing phosphate buffer and one of the following fungi: Candida albicans ATCC 10231 and Malassezia pachydermatis ATCC 14522. After 2 h incubation at 37° C., fungi were transferred on the solid medium agar Sabouraud. As a control, fungal cultures were cultured in the absence of peptide.
# (§3) The fungal suspension was put in contact for two hours with different concentrations of the peptide at the temperature of 37° C. After incubation, 20 μl were drawn from the wells of each dilution and seeded on the solid medium agar Sabouraud. The inoculum was evenly distributed on the agarized medium by means of a sterile disposable loop. After incubation for 24 h at the temperature of 37° C., counting of the fungal colonies (CFU) was performed.
# [2] = test system: Candida albicans ATCC 10231; assay: as above; type: cell-based; conditions: 2 h contact at 37° C., CFU count on agar Sabouraud
# Method: as §1, §2, §3
# [3] = test system: Stenotrophomonas maltophilia ATCC 13637; assay: Broth-microdilution test and subsequent plating on agar, Gram-negative bacteria; type: cell-based; conditions: 2 h contact at 37° C., CFU count after 24 h
# Method: (§4) For each bacterial strain, 3-5 morphologically similar colonies were drawn from fresh cultures, inoculated in Brain Hearth Infusion broth liquid medium and incubated at the temperature of 37° C. under shaking at 225 r.p.m. for 3-4 h. Subsequently, the bacterial suspension was centrifuged at 1000 g for 20 min and the thus obtained pellet was resuspended in phosphate buffer 10 mM. Turbidity was measured in a spectrophotometer with absorbance at 600 nm, equivalent in the range 0.08-0.13 to a concentration of about 10^8 CFU/ml. The bacterial suspension was diluted 1:100 in phosphate buffer 10 mM, and within 30 min 50 microliters of such bacterial suspension (10^6 CFU/ml) were inoculated in each well of the microtiter plate, to obtain a final bacterial concentration of about 5×10^5 CFU/ml.
# Several peptides were tested for their ability to inhibit bacterial growth in liquid culture. Fifty microliters of peptide at a concentration comprised between about 0.2 mM and 50 mM were added in 96-well U-bottom plates containing liquid growth medium and one of the following bacteria: Escherichia coli ATCC 25922, P. aeruginosa ATCC 27853, Stenotrophomonas maltophilia ATCC 13637. After 2 hour incubation at 37° C., bacteria were transferred on a solid medium. As a growth control, bacterial cultures were cultured in the absence of peptides.
# (§5) The bacterial suspension was put in contact for two hours with different concentrations of the peptide at the temperature of 37° C. After incubation, 20 μl were drawn from the wells of each dilution and seeded on solid medium, agar McConkey. The inoculum was evenly distributed on the agarized medium by means of a sterile disposable loop. After incubation for 24 h at the temperature of 37° C., counting of the bacterial colonies (CFU) was performed.
# [4] = test system: Escherichia coli ATCC 25922; type: cell-based; conditions: for LD90 E. coli ATCC 25922: 2 h contact at 37° C., CFU count after 24 h
# [5] = test system: Pseudomonas aeruginosa ATCC 27853; type: cell-based
# S. aureus ATCC 25923 = assay: Broth-microdilution test and subsequent plating on agar, Gram-positive bacteria; type: cell-based, Staphylococcus aureus; conditions: meticillin-sensitive, 2 h contact at 37° C., CFU count after 24 h
# Method: as §4, with “30 min,” for “30 min”
# (§6) Several synthetic peptides were tested for their ability to inhibit bacterial growth. Fifty microliters of peptide at a concentration comprised between about 0.2 mM and about 50 mM were added to 96-well U-bottom plates containing phosphate buffer and one of the following bacteria: S. aureus ATCC 25923, meticillin-resistant S. aureus ATCC 43300. After 2 hour incubation at 37° C., bacteria were transferred on a solid medium. As a control, the bacterial cultures were cultured in the absence of peptide.
# as §5, with “medium, Columbia” for “medium,”, “agar supplemented with 5% bovine red blood cells for Gram-positive bacteria.” for “agar McConkey.”, “24 hours” for “24 h”
# [6] = test system: meticillin-resistant S. aureus ATCC 43300; assay: as above; type: cell-based, Staphylococcus aureus; conditions: 2 h contact at 37° C., CFU count after 24 h
# Method: as §4, with “30 min,” for “30 min”
# as §6
# as §5, with “medium, Columbia” for “medium,”, “agar supplemented with 5% bovine red blood cells for Gram-positive bacteria.” for “agar McConkey.”, “24 hours” for “24 h”
structure (smiles),measurement,setting,value
"CC[C@H](C)[C@@H]1NC(=O)[C@H](CCCCN)NC(=O)[C@H](C)NC(=O)[C@@H](NC(=O)[C@H](CCCCN)NC(=O)[C@@H](N)Cc2c[nH]cn2)CSSC[C@@H](C(=O)N[C@@H](C)C(=O)O)NC(=O)[C@H](Cc2ccc(O)cc2)NC(=O)[C@H](CCCCN)NC(=O)[C@H](C(C)C)NC(=O)[C@H](Cc2c[nH]cn2)NC(=O)[C@H](C(C)C)NC(=O)CNC(=O)[C@H](CCCNC(=N)N)NC(=O)[C@H](Cc2c[nH]c3ccccc23)NC(=O)[C@H](CCCCN)NC1=O (relative stereo) [Peptide P2041, HIS*LYS*CYS*ALA*LYS*ILE*LYS*TRP*ARG*GLY*VAL*HIS*VAL*LYS*TYR*CYS*ALA]",LD90 Malassezia pachydermatis,[1],0.85 µM
same,LD90 Candida albicans,[2],1.42 µM
same,LD90 S. maltophilia ATCC 13637,[3],2.67 µM
same,LD90 E. coli ATCC 25922,[4],0.83 µM
same,LD90 E. coli ATCC 25922,[4]; listed as 2041,1.57 μg/ml and 0.83 μM
same,MBC E. coli ATCC 25922,[4]; ATCC 25922,3.05 µg/mL
same,LD90 P. aeruginosa ATCC 27853,"[5]; 2 h contact at 37° C., CFU count after 24 h",2.14 µM
same,MBC P. aeruginosa ATCC 27853,[5]; ATCC 27853,2.08 µg/mL
same,LD90 S. aureus ATCC 25923,S. aureus ATCC 25923,1.42 µM
same,LD90 S. aureus ATCC 25923,S. aureus ATCC 25923; listed as 2041,1.42 μM and 2.89 μg/ml
same,LD90 MRSA ATCC 43300,[6],0.85 µM
same,LD90 MRSA ATCC 43300,[6]; listed as 2041,0.85 μM and 1.72 μg/ml
